Test results: patent US8691822B2, “Dihydropteridinone derivatives, preparation process and pharmaceutical use thereof” (Jiangsu Hengrui Medicine Co., Ltd., priority 2009, dated 2014)

system: human cervix cancer cells Hela; assay: Plk Cell Proliferation Inhibition Assay (CCK8, 72 hours); format: cell-based; conditions: Hela cells highly expressing Plk
Source text: The following in vitro assay is to determine the activity of the compounds of the present invention for inhibiting the proliferation of human cervix cancer cells Hela, which has high expression of Plk.
The in vitro cellular assay described here is to determine the activity of the tested compounds for inhibiting the proliferation of cancer cells, which has high expression of Plk. The activity is represented by the […]. The general procedures for the assay are given as follows: The Hela cells highly expressing Plk (Institute of biochemistry and cell biology) were seeded to 96-well cell culture plate at a suitable concentration (exp 3000 cells/ml medium). The cells then were cultured in carbon dioxide (CO2) incubator and grew overnight. Then, the cell culture medium was replaced by fresh one with tested compounds added in it at serial concentrations (general 7 to 9 concentrations). Then the cells were put back to the incubator and cultured for continuous 72 hours. 72 hours later, the activity of the tested compounds for inhibiting the cell proliferation was determined by using CCK8 (cell counting kit-8, Dojindo, NO:CK04) method. IC50 value on tested cells were calculated by the data of inhibition rates of serial concentrations of the tested compounds.

Row | SMILES | IC50 [nM]
1 | CC[C@@H]1C(=O)N(C)c2cnc(Nc3ccc(C(=O)NCC4CN(C)CCO4)c4c3OCC4)nc2N1C1CCCC1 (stereo partly drawn) [Example 2, 7-[[(7R)-8-cyclopentyl-7-ethyl-5-methyl-6-oxo-7H-pteridin-2-yl]amino]-N-[(4-methylmorpholin-2-yl)methyl]-2,3-dihydrobenzofuran-4-carboxamide] | 8
2 | CC[C@@H]1C(=O)N(C)c2cnc(Nc3ccc(C(=O)N[C@@H]4C[C@@H](OC(C)=O)[C@H](N(C)C)C[C@H]4OC(C)=O)c4c3OCC4)nc2N1C1CCCC1 [Example 3, [(1R,2R,4R,5R)-4-Acetoxy-2-[[7-[[(7R)-8-cyclopentyl-7-ethyl-5-methyl-6-oxo-7H-pteridin-2-yl]amino]-2,3-dihydrobenzofuran-4-carbonyl]amino]-5-dimethylamino-cyclohexyl]acetate] | 7
3 | CC[C@@H]1C(=O)N(C)c2cnc(Nc3ccc(C(=O)NC4CCN(C)CC4)c4c3OC(C)(C)C4)nc2N1C1CCCC1 [Example 4, 7-[[(7R)-8-Cyclopentyl-7-ethyl-5-methyl-6-oxo-7H-pteridin-2-yl]amino]-2,2-dimethyl-N-(1-methyl-4-piperidyl)-3H-benzofuran-4-carboxamide] | 2
4 | CC[C@@H]1C(=O)N(C)c2cnc(Nc3ccc(C(=O)N[C@@H]4C[C@@H]5CN(C)C[C@@H]5C4)c4c3OCC4)nc2N1C1CCCC1 [Example 5] | 1
5 | CC[C@@H]1C(=O)N(C)c2cnc(Nc3ccc(C(=O)N[C@@H]4C[C@@H]5CN(C)C[C@@H]5C4)c4c3OC(C)(C)C4)nc2N1C1CCCC1 [Example 6, (cis-exo)-N-[2-Methyl-3,3a,4,5,6,6a-hexahydro-1H-cyclopenta[c]pyrrol-5-yl]-7-[[(7R)-8-cyclopentyl-7-ethyl-5-methyl-6-oxo-7H-pteridin-2-yl]amino]-2,2-dimethyl-3H-benzofuran-4-carboxamide] | 2
6 | CC[C@@H]1C(=O)N(C)c2cnc(Nc3ccc(C(=O)NC[C@H](O)CN4CCN(CC5CC5)CC4)c4c3OCC4)nc2N1C1CCCC1 [Example 7, 7-[[(7R)-8-Cyclopentyl-7-ethyl-5-methyl-6-oxo-7H-pteridin-2-yl]amino]-N-[(2S)-3-[4-(cyclopropylmethyl)piperazin-1-yl]-2-hydroxy-propyl]-2,3-dihydrobenzofuran-4-carboxamide] | 3
7 | CC[C@@H]1C(=O)N(C)c2cnc(Nc3ccc(C(=O)NC[C@H](O)CN4CCN(C)CC4)c4c3OCC4)nc2N1C1CCCC1 [Example 8, 7-[[(7R)-8-Cyclopentyl-7-ethyl-5-methyl-6-oxo-7H-pteridin-2-yl]amino]-N-[(2S)-2-hydroxy-3-(4-methylpiperazin-1-yl)propyl]-2,3-dihydrobenzofuran-4-carboxamide] | 3
8 | CC[C@@H]1C(=O)N(C)c2cnc(Nc3ccc(C(=O)N[C@H]4C[C@@H]5CN(C)C[C@@H]5C4)c4c3OC(C)(C)C4)nc2N1C1CCCC1 [Example 9, (cis-endo)-N-[2-Methyl-3,3α,4,5,6,6α-hexahydro-1H-cyclopenta[c]pyrrol-5-yl]-7-[[(7R)-8-cyclopentyl-7-ethyl-5-methyl-6-oxo-7H-pteridin-2-yl]amino]-2,2-dimethyl-3H-benzofuran-4-carboxamide] | 2
9 | CC[C@@H]1C(=O)N(C)c2cnc(Nc3ccc(C(=O)N[C@H]4C[C@@H]5CN(CC6CC6)C[C@@H]5C4)c4c3OC(C)(C)C4)nc2N1C1CCCC1 [Example 10, N-[(cis-endo)-2-(Cyclopropylmethyl)-3,3a,4,5,6,6a-hexahydro-1H-cyclopenta[c]pyrrol-5-yl]-7-[[(7R)-8-cyclopentyl-7-ethyl-5-methyl-6-oxo-7H-pteridin-2-yl]amino]-2,2-dimethyl-3H-benzofuran-4-carboxamide] | 5
10 | CC[C@@H]1C(=O)N(C)c2cnc(Nc3ccc(C(=O)N[C@H]4C[C@@H]5CN(C)C[C@@H]5C4)c4c3OCC4)nc2N1C1CCCC1 [Example 11, (cis-endo)-N-[2-Methyl-3,3a,4,5,6,6a-hexahydro-1H-cyclopenta[c]pyrrol-5-yl]-7-[[(7R)-8-cyclopentyl-7-ethyl-5-methyl-6-oxo-7H-pteridin-2-yl]amino]-2,3-dihydrobenzofuran-4-carboxamide] | 1
11 | CC[C@@H]1C(=O)N(C)c2cnc(Nc3ccc(C(=O)N[C@H]4CC[C@@H](N5CCN(CC6CC6)CC5)CC4)c4c3OCC4)nc2N1C1CCCC1 [Example 12, 7-[[(7R)-8-Cyclopentyl-7-ethyl-5-methyl-6-oxo-7H-pteridin-2-yl]amino]-N-[(cis)-4-[4-(cyclopropylmethyl)piperazin-1-yl]cyclohexyl]-2,3-dihydrobenzofuran-4-carboxamide] | 0.8
12 | CC[C@@H]1C(=O)N(C)c2cnc(Nc3ccc(C(=O)N[C@H]4C[C@@H]5CN(CC6CC6)C[C@@H]5C4)c4c3OCC4)nc2N1C1CCCC1 [Example 13, (cis-endo)-N-[2-(Cyclopropylmethyl)-3,3a,4,5,6,6a-hexahydro-1H-cyclopenta[c]pyrrol-5-yl]-7-[[(7R)-8-cyclopentyl-7-ethyl-5-methyl-6-oxo-7H-pteridin-2-yl]amino]-2,3-dihydrobenzofuran-4-carboxamide] | 1
13 | CC[C@@H]1C(=O)N(C)c2cnc(Nc3ccc(C(=O)N[C@@H]4C[C@H]5CCN(C)C[C@H]5C4)c4c3OCC4)nc2N1C1CCCC1 [Example 14, (cis-endo)-N-[2-Methyl-1,3,3a,4,5,6,7,7a-octahydrocyclopenta[c]pyridin-6-yl]-7-[[(7R)-8-cyclopentyl-7-ethyl-5-methyl-6-oxo-7H-pteridin-2-yl]amino]-2,3-dihydrobenzofuran-4-carboxamide] | 1
14 | CC[C@@H]1C(=O)N(C)c2cnc(Nc3ccc(C(=O)NC[C@@H]4CN(C)CCO4)c4c3OCC4)nc2N1C1CCCC1 [Example 15, 7-[[(7R)-8-Cyclopentyl-7-ethyl-5-methyl-6-oxo-7H-pteridin-2-yl]amino]-N-[[(2R)-4-methylmorpholin-2-yl]methyl]-2,3-dihydrobenzofuran-4-carboxamide] | 3
15 | CC[C@@H]1C(=O)N(C)c2cnc(Nc3ccc(C(=O)N[C@H]4CC[C@H](N5CCN(CC6CC6)CC5)CC4)c4c3OC(C)(C)C4)nc2N1C1CCCC1 [Example 16, 7-[[(7R)-8-Cyclopentyl-7-ethyl-5-methyl-6-oxo-7H-pteridin-2-yl]amino]-N-[(trans)-4-[4-(cyclopropylmethyl)piperazin-1-yl]cyclohexyl]-2,2-dimethyl-3H-benzofuran-4-carboxamide] | 30
16 | CC[C@@H]1C(=O)N(C)c2cnc(Nc3ccc(C(=O)N[C@H]4CC[C@H](N5CCN(C)CC5)CC4)c4c3OC(C)(C)C4)nc2N1C1CCCC1 [Example 17, 7-[[(7R)-8-Cyclopentyl-7-ethyl-5-methyl-6-oxo-7H-pteridin-2-yl]amino]-2,2-dimethyl-N-[(trans)-4-(4-methylpiperazin-1-yl)cyclohexyl]-3H-benzofuran-4-carboxamide] | 10
17 | CC[C@@H]1C(=O)N(C)c2cnc(Nc3ccc(C(=O)N[C@H]4CC[C@H](N5CCN(C)CC5)CC4)c4c3OCC4)nc2N1C1CCCC1 [Example 19, 7-[[(7R)-8-Cyclopentyl-7-ethyl-5-methyl-6-oxo-7H-pteridin-2-yl]amino]-N-[(trans)-4-(4-methylpiperazin-1-yl)cyclohexyl]-2,3-dihydrobenzofuran-4-carboxamide] | 3
18 | CC[C@@H]1C(=O)N(C)c2cnc(Nc3ccc(C(=O)NC[C@@H](O)CN4CCN(C)CC4)c4c3OC(C)(C)C4)nc2N1C1CCCC1 [Example 20, 7-[[(7R)-8-Cyclopentyl-7-ethyl-5-methyl-6-oxo-7H-pteridin-2-yl]amino]-N-[(2R)-3-(4-methylpiperazin-1-yl)-2-hydroxy-propyl]-2,2-dimethyl-3H-benzofuran-4-carboxamide] | 8
19 | CC[C@@H]1C(=O)N(C)c2cnc(Nc3ccc(C(=O)NC[C@H](O)CN4CCN(C)CC4)c4c3OC(C)(C)C4)nc2N1C1CCCC1 [Example 21, 7-[[(7R)-8-Cyclopentyl-7-ethyl-5-methyl-6-oxo-7H-pteridin-2-yl]amino]-N-[(2S)-3-(4-methylpiperazin-1-yl)-2-hydroxy-propyl]-2,2-dimethyl-3H-benzofuran-4-carboxamide] | 7
20 | CC[C@@H]1C(=O)N(C)c2cnc(Nc3ccc(C(=O)NC4CCN(C)CC4)c4c3OCC4)nc2N1C(C)C [Example 22, 7-[[(7R)-7-Ethyl-8-isopropyl-5-methyl-6-oxo-7H-pteridin-2-yl]amino]-N-(1-methyl-4-piperidyl)-2,3-dihydrobenzofuran-4-carboxamide] | 2
21 | CC[C@@H]1C(=O)N(C)c2cnc(Nc3ccc(C(=O)N[C@H]4C[C@@H]5CN(C)C[C@@H]5C4)c4c3OCC4)nc2N1C(C)C [Example 24, (cis-endo)-N-[2-Methyl-3,3a,4,5,6,6a-hexahydro-1H-cyclopenta[c]pyrrol-5-yl]-7-[[(7R)-7-ethyl-8-isopropyl-5-methyl-6-oxo-7H-pteridin-2-yl]amino]-2,3-dihydrobenzofuran-4-carboxamide] | 2
22 | CC[C@@H]1C(=O)N(C)c2cnc(Nc3ccc(C(=O)NC[C@@H](O)CN4CCN(C)CC4)c4c3OCC4)nc2N1C1CCCC1 [Example 25, 7-[[(7R)-8-Cyclopentyl-7-ethyl-5-methyl-6-oxo-7H-pteridin-2-yl]amino]-N-[(2R)-2-hydroxy-3-(4-methylpiperazin-1-yl)propyl]-2,3-dihydrobenzofuran-4-carboxamide] | 3
